Experimental data as given in patent publication US5231091A, “Bis-arylphosphate ester antagonists of platelet activating factor” (priority 1992, dated 1993).
Structures can show the parent of a compound that is named as a salt.

Molecular target: T1, PAF receptor (Oryctolagus cuniculus, UniProt G1TEI7)
T1 construct: endogenous in cells; host or cells: rabbit platelets (male New Zealand White)
Assay: Inhibition of PAF-induced aggregation in rabbit platelet rich plasma
Type: cell-based, rabbit (male New Zealand White)
Conditions: not given
Protocol: Test compounds were evaluated as PAF receptor antagonists in vitro by measuring inhibition of PAF (platelet activating factor) induced platelet aggregation. Platelet aggregation was measured by a modification of the method described in A. Wissner, et. al., J. Med. Chem., 27, 1174, 1984.
Approximately 120-240 ml of blood were collected by cardiac puncture from unanesthetized male New Zealand White rabbits (Whaley's Summit View Farms, Belvedere, N.J.) with the use of 3.2% sodium citrate anticoagulant (1 part of citrate/10 parts of blood). All syringes and pipets were plastic. The blood was gently mixed and immediately centrifuged at 800 rpm for 10-15 minutes at room temperature to recover the platelet rich plasma (PRP). Platelet poor plasma (PPP) was prepared by centrifuging PRP at 2800 rpm for 10 minutes at room temperature.
Dilutions (1:3000) of PRP in Isoton® diluent were made and platelet counts were determined on a Coulter Thrombocounter which was standardized with platelet reference standards (Interscience Platelet Control, Portland, Oreg.). PRP platelet counts were adjusted to approximately 400,000-500,000 platelets/μl by the addition of PPP.
L-PAF was obtained from Calbiochem. A stock solution of 1-2 E-3M was prepared in 10% ethanol in water or 100% methanol and serial working dilutions were made using phosphate buffered saline (PBS). 1-2 E-3M stock solutions of test compounds were prepared in 100% methanol and serially diluted in PBS. All solutions were made up in plastic tubes, stored on ice and protected from heat and light. Solutions were prepared fresh or frozen at -20° C. and used within 48 hours.
Incubation mixtures consisted of 400 μl PRP, 50 μl of PBS diluent or test compound and 50 μl of PAF agonist. More specifically, 400 μl of PRP was stabilized in a cuvette for 1-2 minutes at 37° C. in the aggregometer to achieve a stable baseline, then 50 μl of PBS or test compound, was added and incubated for 5 minutes before addition of the challenge concentration of PAF (final concentration of 5E-8M or 1E-7M, as determined from the dose response curve for PAF for that experiment). Aggregation was monitored for 5 minutes. Samples containing test compound or diluent were run simultaneously for comparison. Test compounds were initially evaluated at a screening concentration of 1E-5M.
The recording equipment consisted of a dual channel Chronolog aggregometer connected to a dual channel 10 MV full scale deflection Omniscribe chart recorder (Houston Instruments). […] The bead suspension was used to set the 0% light transmission mark and clear water was used to set the 100% light transmission mark. These limits defined a full scale deflection. The aggregation traces were analyzed by a digitizing method (C. Kohler and B. Zoltan, J. Pharm. Methods, 12, 113, 1984) with x, y coordinate data stored in a computer file. A suitable program computed parameters of interest such as the magnitude of aggregation.

T1 sequence (G1TEI7 1-342): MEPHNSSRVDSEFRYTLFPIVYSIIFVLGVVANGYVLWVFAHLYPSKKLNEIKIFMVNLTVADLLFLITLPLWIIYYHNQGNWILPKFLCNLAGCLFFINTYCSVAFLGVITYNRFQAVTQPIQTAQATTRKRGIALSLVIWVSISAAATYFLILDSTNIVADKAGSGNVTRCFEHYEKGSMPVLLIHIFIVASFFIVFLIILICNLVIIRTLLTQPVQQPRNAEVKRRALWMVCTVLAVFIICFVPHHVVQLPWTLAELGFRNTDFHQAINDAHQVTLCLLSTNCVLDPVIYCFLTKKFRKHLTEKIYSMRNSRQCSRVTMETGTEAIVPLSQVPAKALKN

**Q.** Which IC50 does the source give for `CCCCCCCCCCCCCCCCCCNC(=O)Oc1cccc(OP(=O)([O-])Oc2cccc(C[n+]3csc(C)c3)c2)c1C` [3-[[3-[[Hydroxy[2-methyl-3-[[(octadecylamino)carbonyl]oxy]phenoxy]phosphinyl]oxy]phenyl]methyl]-5-methylthiazolium, hydroxide, inner salt] here?
**A.** The IC50 was 1.8 µM.

**Q.** For `CCCCCCCCCCCCCCCCCCNC(=O)Oc1cccc(OP(=O)([O-])Oc2cccc(C[n+]3ccsc3)c2)c1C` [3-[[3-[[Hydroxy[2-methyl-3-[[(octadecylamino)carbonyl]oxy]phenoxy]phosphinyl]oxy]phenyl]methyl]thiazolium, hydroxide, inner salt], which IC50 is on record?
**A.** Its IC50 is 3.72 µM.

Same assay, conditions: rabbit platelet rich plasma; PAF challenge 5E-8M; number of experiments in parentheses; read-out: IC50 inhibition of PAF-induced aggregation

**Q.** With `CCCCCCCCCCCCCCOc1cccc(OP(=O)([O-])Oc2cccc(C[n+]3csc(C)c3)c2)c1C(=O)OC` [3-[[3-[[Hydroxy[2-(methoxycarbonyl)-3-(tetradecyloxy)phenoxy]phosphinyl]oxy]phenyl]methyl]-5-methylthiazolium, hydroxide, inner salt] as the compound, how does the IC50 read?
**A.** Its IC50 is 0.521 µM.

**Q.** For `CCCCCCCCCCCCOc1cccc(OP(=O)([O-])Oc2cccc(C[n+]3ccsc3)c2)c1OC` [3-[[3-[[[3-(Dodecyloxy)-2-methoxyphenoxy]hydroxyphosphinyl]oxy]phenyl]methyl]thiazolium, hydroxide, inner salt], which IC50 is on record?
**A.** The IC50 was 1.72 µM.

**Q.** For `CCCCCCCCCCCCCCOc1cccc(OP(=O)([O-])Oc2cccc(C[n+]3ccccc3)c2)c1OC` [1-[[3-[[Hydroxy[2-methoxy-3-(tetradecyloxy)phenoxy]-phosphinyl]oxy]phenyl]methyl]-pyridinium, hydroxide, inner salt], which IC50 is on record?
**A.** Its IC50 is 165 µM.

**Q.** Which IC50 does the source give for `CCCCCCCCCCCCCCOc1ccccc1OP(=O)([O-])Oc1cccc(C[n+]2ccsc2)c1` [3-[[3-[ [Hydroxy[2-(tetradecyloxy)phenoxy]phosphinyl]-oxy]phenyl]methyl]thiazolium, hydroxide, inner salt] here?
**A.** The IC50 was 57.5 µM.

**Q.** For `CCCCCCCCCCCCCCCCOc1cccc(OP(=O)(O)Oc2cccc(C[n+]3cccc4ccccc43)c2)c1` [1-[[3-[[[3-(Hexadecyloxy)phenoxy]hydroxyphosphinyl]-oxy]phenyl]methyl]-quinolinium, hydroxide], which IC50 is on record?
**A.** Its IC50 is 21.8 µM.

**Q.** `CCCCCCCCCCCCCCCCOc1cccc(OP(=O)([O-])Oc2cccc(C[n+]3ccccc3)c2)c1` [1-[[3-[[[3-(Hexadecyloxy)phenoxy]hydroxyphosphinyl]-oxy]phenyl]methyl]-pyridinium, hydroxide inner salt] was tested. Which IC50 did it give?
**A.** The IC50 was 15.4 µM.

**Q.** With `CCCCCCCCCCCCCCOc1cccc(OP(=O)([O-])Oc2cccc(C[n+]3csc(C)c3)c2)c1` [3-[[3-[[Hydroxy[3-(tetradecyloxy)phenoxy]phosphinyl]-oxy]phenyl]methyl]-5-methyl-thiazolium, hydroxide, inner salt] as the compound, how does the IC50 read?
**A.** The IC50 was 8.82 µM.

**Q.** How did the IC50 turn out when `CCCCCCCCCCCCOc1ccc2ccc(OP(=O)([O-])Oc3cccc(C[n+]4ccsc4)c3)cc2c1` [3-[[3-[[[[7-(dodecyloxy)-2-naphthalenyl]oxy]hydroxyphosphinyl]oxy]phenyl]methyl]thiazolium, hydroxide, inner salt] was run?
**A.** The IC50 was 26.4 µM.

**Q.** With `CCCCCCCCCCCCOc1cc(C(C)(C)C)c(OP(=O)([O-])Oc2cccc(C[n+]3csc(C)c3)c2)cc1C(C)(C)C` [3-[[3-[[[2,5-Bis(1,1-dimethylethyl)-4-(dodecyloxy)phenoxy] hydroxyphosphinyl]oxy]phenyl]methyl]-5-methyl-thiazolium, hydroxide, inner salt] as the compound, how does the IC50 read?
**A.** Its IC50 is 0.412 µM.

**Q.** With `CCCCCCCCCCCCCCOc1cccc(COP(=O)([O-])Oc2cccc(C[n+]3ccsc3)c2)c1` [3-[[3-[[Hydroxy[[3-(tetradecyloxy)phenyl]methoxy]-phosphinyl]oxy]phenyl]methyl]thiazolium, hydroxide, inner salt] as the compound, how does the IC50 read?
**A.** Its IC50 is 4.22 µM.

**Q.** `CCCCCCCCCCCCCCOc1cccc(OP(=O)([O-])Oc2cccc(C[n+]3cccc4ccccc43)c2)c1OC` [1-[[3-[[Hydroxy[2-methoxy-3-(tetradecyloxy)phenoxy]-phosphinyl]oxy]phenyl]methyl]-quinolinium, hydroxide, inner salt] was tested. Which IC50 did it give?
**A.** Its IC50 is 8 µM.

**Q.** Which IC50 does the source give for `CCCCCCCCCCCCOc1cccc(OP(=O)([O-])Oc2cccc(C[n+]3ccsc3)c2)c1` [3-[[3-[[[3-(Dodecyloxy)phenoxy]hydroxyphosphinyl]-oxy]phenyl]methyl]thiazolium, hydroxide, inner salt] here?
**A.** Its IC50 is 52.8 µM.

**Q.** `CCCCCCCCCCCCCCCCOc1ccc(OP(=O)([O-])Oc2cccc(C[n+]3ccsc3)c2)cc1` [3-[[3-[[[4-(Hexadecyloxy)phenoxy]hydroxyphosphinyl]-oxy]phenyl]methyl]thiazolium, hydroxide, inner salt] was tested. Which IC50 did it give?
**A.** Its IC50 is 3.28 µM.

**Q.** For `CCCCCCCCCCCCCCCCOc1cccc(OP(=O)([O-])Oc2ccccc2C[n+]2ccsc2)c1` [3-[[2-[[[3-(Hexadecyloxy)phenoxy]hydroxyphosphinyl]oxy]phenyl]methyl]-thiazolium, hydroxide, inner salt], which IC50 is on record?
**A.** The IC50 was 6.36 µM.

**Q.** For `CCCCCCCCCCCCOc1cc(OP(=O)([O-])Oc2cccc(C[n+]3ccsc3)c2)c(C(C)(C)C)cc1C(C)(C)C` [3-[[3-[[[2,4-Bis(1,1-dimethylethyl)-5-(dodecyloxy)phenoxy]hydroxyphosphinyl]oxy]phenyl]methyl]thiazolium, hydroxide, inner salt], which IC50 is on record?
**A.** Its IC50 is 30.2 µM.

**Q.** How did the IC50 turn out when `CCCCCCCCCCCCCCOc1cccc(OP(=O)([O-])Oc2cccc(C[n+]3ccc4ccccc4c3)c2)c1OC` [2-[[3-[[Hydroxy[2-methoxy-3-(tetradecyloxy)phenoxy]-phosphinyl]oxy]phenyl]methyl]-isoquinolinium, hydroxide, inner salt] was run?
**A.** The IC50 was 20 µM.

**Q.** With `CCCCCCCCCCCCCCOc1cccc(OP(=O)([O-])Oc2cccc(C[n+]3ccsc3)c2)c1` [3-[[3-[[Hydroxy[3-(tetradecyloxy)phenoxy]phosphinyl]-oxy]phenyl]methyl]thiazolium, hydroxide, inner salt] as the compound, how does the IC50 read?
**A.** The IC50 was 6.15 µM.

**Q.** For `CCCCCCCCCCCCCCCCOc1cccc(OP(=O)([O-])Oc2cccc(C[n+]3cccc4ccccc43)c2)c1C` [1-[[3-[[[3-(hexadecyloxy)-2-methylphenoxy]hydroxyphosphinyl]oxy]phenyl]methyl]quinolinium], which IC50 is on record?
**A.** Its IC50 is 29.6 µM.

**Q.** `Cc1c[n+](Cc2cccc(OP(=O)([O-])Oc3ccc(OCc4ccccc4)cc3)c2)cs1` [3-[[3-[[Hydroxy[4-(phenylmethoxy)phenoxy]phosphinyl]oxy]phenyl]methyl]-5-methyl-thiazolium, hydroxide, inner salt] was tested. Which IC50 did it give?
**A.** The IC50 was 1530 µM.

**Q.** How did the IC50 turn out when `CCCCCCCCCCCCCCc1cccc(OP(=O)([O-])Oc2cccc(C[n+]3ccsc3)c2)c1` [3-[[3-[[Hydroxy(3-tetradecylphenoxy)phosphinyl]oxy]-phenyl]methyl]thiazolium, hydroxide, inner salt] was run?
**A.** Its IC50 is 18.8 µM.

**Q.** With `CCCCCCCCCCCCCCOc1cccc(OP(=O)([O-])Oc2cccc(C[n+]3cccc4ccccc43)c2)c1C(=O)OC` [1-[[3-Hydroxy[2-(methoxycarbonyl)-3-(tetradecyloxy)-phenoxy]phosphinyl]oxy]phenyl]methyl]quinolinium, hydroxide, inner salt] as the compound, how does the IC50 read?
**A.** The IC50 was 6.26 µM.

**Q.** With `CCCCCCCCCCCCCCOc1cccc(OP(=O)([O-])Oc2cccc(C[n+]3ccsc3)c2)c1C(=O)OC` [3-[[3-[[Hydroxy[2-(methoxycarbonyl)-3-(tetradecyloxy)-phenoxy]phosphinyl]oxy]phenyl]methyl]-thiazolium, hydroxide, inner salt] as the compound, how does the IC50 read?
**A.** Its IC50 is 2.7 µM.

**Q.** How did the IC50 turn out when `CCCCCCCCCCCCOc1cccc(OP(=O)([O-])Oc2cccc(C[n+]3cccc4ccccc43)c2)c1OC` [-[[3-[[[3-(Dodecyloxy)-2-methoxyphenoxy]hydroxyphosphinyl]oxy]phenyl]methyl]quinolinium, hydroxide, inner salt] was run?
**A.** Its IC50 is 24.7 µM.

Test system: PAF induced lethality
Assay: PAF induced lethality in mice
Type: in vivo
Conditions: I.P. 10 mg/kg; corrected for control lethality
Protocol: PAF given I.V. to mice causes an immediate hypotensive shock leading to death in 1 hour or less. Compounds were given intraperitoneally or P.O. at various times before the PAF challenge. Animals alive after 2 hours were counted and the activity of test compounds expressed as % survival corrected for any control (saline treated) animals which survived the PAF challenge.

**Q.** How did the “PAF induced lethality, % protection” value turn out when `CCCCCCCCCCCCCCOc1cccc(OP(=O)([O-])Oc2cccc(C[n+]3csc(C)c3)c2)c1C(=O)OC` [3-[[3-[[Hydroxy[2-(methoxycarbonyl)-3-(tetradecyloxy)phenoxy]phosphinyl]oxy]phenyl]methyl]-5-methylthiazolium, hydroxide, inner salt] was run?
**A.** The value was 0%.

**Q.** Which “PAF induced lethality, % protection” value does the source give for `CCCCCCCCCCCCOc1cc(C(C)(C)C)c(OP(=O)([O-])Oc2cccc(C[n+]3csc(C)c3)c2)cc1C(C)(C)C` [3-[[3-[[[2,5-Bis(1,1-dimethylethyl)-4-(dodecyloxy)phenoxy] hydroxyphosphinyl]oxy]phenyl]methyl]-5-methyl-thiazolium, hydroxide, inner salt] here?
**A.** The value was 36%.

**Q.** With `CCCCCCCCCCCCCCCCOc1ccc(OP(=O)([O-])Oc2cccc(C[n+]3ccsc3)c2)cc1` [3-[[3-[[[4-(Hexadecyloxy)phenoxy]hydroxyphosphinyl]-oxy]phenyl]methyl]thiazolium, hydroxide, inner salt] as the compound, how does the “PAF induced lethality, % protection” value read?
**A.** Its value is 96%.

**Q.** How did the “PAF induced lethality, % protection” value turn out when `CCCCCCCCCCCCCCOc1cccc(OP(=O)([O-])Oc2cccc(C[n+]3ccsc3)c2)c1C(=O)OC` [3-[[3-[[Hydroxy[2-(methoxycarbonyl)-3-(tetradecyloxy)-phenoxy]phosphinyl]oxy]phenyl]methyl]-thiazolium, hydroxide, inner salt] was run?
**A.** The value was 12%.
